Laboratory results: patent publication US20260042734A1, “HETEROCYCLIC RING-SUBSTITUTED AROMATIC COMPOUND, PREPARATION METHOD THEREFOR, AND USE THEREOF” (SHANGHAI HENLIUS BIOTECH, INC., priority 2023, published 2026)

Molecular target: human Kv1.3 (hKv1.3) channels (Homo sapiens (Human), UniProt P22001)
Assay: Electrophysiological (whole-cell patch clamp) determination of inhibitory activity on Kv1.3 channels
Type: cell-based
Details: HEK293T cells expressing hKv1.3; for inhibition at 0.01 µM: HEK-293T, read-out: 10 nM inhibition rate (Kv1.3)
Description: Test Example 1: Determination of Inhibitory Activity of Compounds on Kv1.3 (hKv1.3) Channels
Electrophysiological Testing
Potassium currents were measured using HEK293T cells expressing human Kv1.3 (hKv1.3) channels.
Prior to the start of electrophysiological experiments, Kv1.3 cell lines should be maintained within 70% of the maximum density in the logarithmic growth phase. All reagents should be pre-warmed to 37° C. before use. • 1) Aspirate the spent medium from the 6 cm culture dish. • 2) Add 1 mL of PBS, gently rock the dish to rinse the bottom, and then remove the PBS. • 3) Add 1 mL of trypsin, and gently rock the dish to ensure the trypsin covers all the cells. • 4) Incubate at 37° C. for 2-3 minutes, and then gently pipette the cells to suspend the adherent cells. • 5) Transfer the cell suspension to a new centrifuge tube and centrifuge at 1000 rpm for 5 minutes. Adjust the cell concentration to 2×10^3 cells/mL, and then seed 300 μL of the cell suspension into each well of a 24-well plate containing cell climbing slides. Perform patch clamp experiments after the cells adhered properly.
The intracellular and extracellular solutions used were designed to mimic the cell physiological ionic composition.
Kv1.3 extracellular solution: 137 mM NaCl, 1 mM MgCl2·6H2O, 4 mM KCl, 1.8 mM CaCl2·2H2O, 10 mM D-Glucose, 10 mM HEPES, pH adjusted to 7.4 with NaOH.
Kv1.3 intracellular solution: 140 mM KCl, 10 mM EGTA, 5 mM MgCl2·6H2O, 10 mM HEPES, […], pH adjusted to 7.2 with KOH.
Test Compound Dissolution
• 1) The test compound was dissolved in DMSO to prepare a 30 mM stock solution. • 2) The stock solution of the test compound was serially diluted with DMSO to obtain secondary stock solutions at concentrations of 300 μM, 100 μM, 30 μM, 10 μM, and 3 μM. • 3) 10 μL of each secondary stock solution was diluted into 10 mL of extracellular solution to achieve final concentrations of 300 nM, 100 nM, 30 nM, 10 nM, and 3 nM for electrophysiological testing.
Kv1.3 potassium current data were collected and stored on a computer using Patchmaster software via an EPC-10 amplifier. • 1) The cell climbing slide was removed from the cell culture dish using forceps, immersed with extracellular solution, and placed into the bath chamber on the stage of an inverted microscope. • 2) Glass micropipettes were pulled using a P-1000 micropipette puller, filled one-third of their volume with intracellular solution, and then mounted onto an electrode holder. • 3) Using a motorized micromanipulator (Scientifica-Double 1U), the recording electrode was brought into contact with the cell surface. […] The positive pressure was removed, and a negative pressure of 0.5 cm H2O was applied. It was observed that the sealing resistance increased rapidly until it reached the gigaseal. When the sealing resistance between the recording electrode and the cell membrane was >1 GΩ, negative pressure was applied to rupture the membrane to form the whole-cell recording mode. After the ruptured membrane stabilized, the membrane capacitance (Cs) and series resistance (Rs) were compensated. • 4) Stimulation procedure: the cell was voltage-clamped at −80 mV, depolarized to 40 mV for a duration of 200 ms, and then repolarized to −80 mV. Currents were recorded every 10 s. • 5) Kv1.3 potassium channel currents were recorded at room temperature prior to drug application. After the control current value reached a steady state (indicated by overlapping of the four most consecutive current traces), cumulative drug application was performed. The negative control (0.1% DMSO) was applied first, followed by […] of the drugs.
Raw Kv1.3 current peak data were extracted from PatchMaster software. The current inhibition rate was calculated as follows: Peak current inhibition rate=((1−(Peak current compound)/(Peak current vehicle))). […]

[1] = compound concentration 10 nM, peak current inhibition

human Kv1.3 (hKv1.3) channels, sequence (P22001 whole entry): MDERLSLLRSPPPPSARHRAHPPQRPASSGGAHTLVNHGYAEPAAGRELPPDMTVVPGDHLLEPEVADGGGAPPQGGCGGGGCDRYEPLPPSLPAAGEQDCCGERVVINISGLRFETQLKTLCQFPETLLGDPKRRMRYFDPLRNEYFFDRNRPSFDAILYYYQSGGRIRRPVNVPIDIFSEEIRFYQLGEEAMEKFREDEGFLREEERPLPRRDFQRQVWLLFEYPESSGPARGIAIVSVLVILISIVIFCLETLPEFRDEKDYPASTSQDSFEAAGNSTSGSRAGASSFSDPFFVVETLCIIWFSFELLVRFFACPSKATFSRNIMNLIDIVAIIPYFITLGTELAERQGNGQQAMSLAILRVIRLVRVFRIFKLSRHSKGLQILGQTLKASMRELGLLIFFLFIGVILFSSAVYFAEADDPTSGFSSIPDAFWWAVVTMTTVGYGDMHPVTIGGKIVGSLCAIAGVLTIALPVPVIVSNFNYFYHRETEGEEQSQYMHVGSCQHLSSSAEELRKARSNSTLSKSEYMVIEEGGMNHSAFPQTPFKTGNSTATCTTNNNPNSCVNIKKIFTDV

Row | inhibition at 0.01 µM [1] [%] | Compound | further results
1 | – | 4-(2,3-Dichloro-6-hydroxyphenyl)-1-(2,2-difluoro-3-hydroxypropyl)pyrrolidine-2-thione [Compound 121] | 10 nM inhibition rate (Kv1.3) [1]: A (A = inhibition ≥75%)
2 | 25 to 50 | OCCCN1CC(c2c(O)ccc(Cl)c2Cl)CC1=S (racemic) [Compound 1, rac-4-(2,3-Dichloro-6-hydroxyphenyl)-1-(3-hydroxypropyl)pyrrolidine-2-thione] | –
3 | 50 to 75 | NCCCN1CC(c2c(O)ccc(Cl)c2Cl)CC1=S (racemic) [Compound 2, rac-1-(3-Aminopropyl)-4-(2,3-dichloro-6-hydroxyphenyl)pyrrolidine-2-thione] | –
4 | 0 to 5 | ONCCCN1CC(c2c(O)ccc(Cl)c2Cl)CC1=S (racemic) [Compound 26, rac-4-(2,3-Dichloro-6-hydroxyphenyl)-1-(3-(hydroxyamino)propyl)pyrrolidine-2-thione] | –
5 | 25 to 50 | Oc1ccc(Cl)c(Cl)c1C1CC(=S)N(C2CC3(CNC3)C2)C1 (racemic) [Compound 34, rac-4-(2,3-Dichloro-6-hydroxyphenyl)-1-(2-azaspiro[3.3]heptan-6-yl)pyrrolidine-2-thione] | –
6 | < 0 | Oc1ccc(Cl)c(Cl)c1C1CC(=S)N(CCn2cccn2)C1 (racemic) [Compound 37, rac-1-(2-(1H-Pyrazol-1-yl)ethyl)-4-(2,3-dichloro-6-hydroxyphenyl)pyrrolidine-2-thione] | –
7 | 50 to 75 | Cn1cc(N2CC(c3c(O)ccc(Cl)c3Cl)CC2=S)cn1 (racemic) [Compound 40, 4-(2,3-dichloro-6-hydroxyphenyl)-1-(1-methyl-1H-pyrazol-4-yl)pyrrolidine-2-thione] | –
8 | 25 to 50 | C=Cn1cc(N2CC(c3c(O)ccc(Cl)c3Cl)CC2=S)cn1 (racemic) [Compound 66, rac-4-(2,3-dichloro-6-hydroxyphenyl)-1-(1-vinyl-1H-pyrazol-4-yl)pyrrolidine-2-thione] | –
9 | 25 to 50 | CS(=O)(=O)n1cc(N2CC(c3c(O)ccc(Cl)c3Cl)CC2=S)cn1 (racemic) [Compound 68, rac-4-(2,3-dichloro-6-hydroxyphenyl)-1-(1-(methylsulfonyl)-1H-pyrazol-4-yl)pyrrolidine-2-thione] | –
10 | 50 to 75 | CS(=O)(=O)n1cc(N2CC(c3c(O)ccc(Cl)c3Cl)CC2=O)cn1 (racemic) [Compound 92, 4-(2,3-Dichloro-6-hydroxyphenyl)-1-(1-(methylsulfonyl)-1H-pyrazol-4-yl)pyrrolidin-2-one] | –
11 | ≥ 75 | O=C1CC(c2c(O)ccc(Cl)c2Cl)CN1CCCNO (racemic) [Compound 103, 4-(2,3-Dichloro-6-hydroxyphenyl)-1-(3-(hydroxyamino)propyl)pyrrolidin-2-one] | –
12 | 25 to 50 | Oc1ccc(Cl)c(Cl)c1C1CC(=S)N([C@H]2C[C@H](O)C2)C1 (mixture of isomers) [Compound 124, rac-4-(2,3-dichloro-6-hydroxyphenyl)-1-((1r,3r)-3-hydroxycyclobutyl)pyrrolidine-2-thione] | –
13 | 0 to 5 | OCC1(CN2CC(c3c(O)ccc(Cl)c3Cl)CC2=S)CC1 (racemic) [Compound 125, rac-4-(2,3-Dichloro-6-hydroxyphenyl)-1-((1-(hydroxymethyl)cyclopropyl)methyl)pyrrolidine-2-thione] | –
14 | 0 to 5 | OC[C@H]1C[C@H](N2CC(c3c(O)ccc(Cl)c3Cl)CC2=S)C1 (mixture of isomers) [Compound 126, rac-4-(2,3-dichloro-6-hydroxyphenyl)-1-((1r,3r)-3-(hydroxymethyl)cyclobutyl)pyrrolidine-2-thione] | –
15 | 0 to 5 | OC[C@H]1C[C@@H](N2CC(c3c(O)ccc(Cl)c3Cl)CC2=S)C1 (mixture of isomers) [Compound 127, rac-4-(2,3-dichloro-6-hydroxyphenyl)-1-((1s,3s)-3-(hydroxymethyl)cyclobutyl)pyrrolidine-2-thione] | –
16 | 0 to 5 | Oc1ccc(Cl)c(Cl)c1C1CC(=S)N(C[C@H]2C[C@@H](O)C2)C1 (mixture of isomers) [Compound 128, rac-4-(2,3-dichloro-6-hydroxyphenyl)-1-(((1s,3s)-3-hydroxycyclobutyl)methyl)pyrrolidine-2-thione] | –
17 | 0 to 5 | Oc1ccc(Cl)c(Cl)c1C1CC(=S)N(C[C@H]2C[C@H](O)C2)C1 (mixture of isomers) [Compound 129, rac-4-(2,3-dichloro-6-hydroxyphenyl)-1-(((1r,3r)-3-hydroxycyclobutyl)methyl)pyrrolidine-2-thione] | –
18 | 25 to 50 | OCCCCN1CC(c2c(O)ccc(Cl)c2Cl)CC1=S (racemic) [Compound 130, rac-4-(2,3-dichloro-6-hydroxyphenyl)-1-(4-hydroxybutyl)pyrrolidine-2-thione] | –
19 | 50 to 75 | OC[C@@H](O)CN1CC(c2c(O)ccc(Cl)c2Cl)CC1=S (mixture of isomers) [Compound 131, rac-4-(2,3-dichloro-6-hydroxyphenyl)-1-((S)-2,3-dihydroxypropyl)pyrrolidine-2-thione] | IC50 (Hill fit of peak current inhibition): 30 to 100 nM
20 | 0 to 5 | OCCCN1CC(c2c(O)ccc(F)c2Cl)CC1=S (racemic) [Compound 148, rac-4-(2-chloro-3-fluoro-6-hydroxyphenyl)-1-(3-hydroxypropyl)pyrrolidine-2-thione] | –
21 | < 0 | OCCCN1CC(c2c(O)ccc(Cl)c2F)CC1=S (racemic) [Compound 149, rac-4-(3-chloro-2-fluoro-6-hydroxyphenyl)-1-(3-hydroxypropyl)pyrrolidine-2-thione] | –
22 | 50 to 75 | Oc1ccc(Cl)c(Cl)c1C1CC(=S)N(c2cnn(C3CC3)c2)C1 (racemic) [Compound 150, rac-1-(1-cyclopropyl-1H-pyrazol-4-yl)-4-(2,3-dichloro-6-hydroxyphenyl)pyrrolidine-2-thione] | –
23 | 25 to 50 | Oc1ccc(Cl)c(Cl)c1C1CC(=S)N(c2cnn3c2CCC3)C1 (racemic) [Compound 159, rac-4-(2,3-dichloro-6-hydroxyphenyl)-1-(5,6-dihydro-4H-pyrrolo[1,2-b]pyrazol-3-yl)pyrrolidine-2-thione] | –
24 | 25 to 50 | O=C1CC(c2c(O)ccc(Cl)c2Cl)CN1c1cnn2c1CCC2 (racemic) [Compound 160, rac-4-(2,3-dichloro-6-hydroxyphenyl)-1-(5,6-dihydro-4H-pyrrolo[1,2-b]pyrazol-3-yl)pyrrolidin-2-one] | –
25 | 50 to 75 | Oc1ccc(Cl)c(Cl)c1C1CC(=S)N(c2cnn3c2OCC3)C1 (racemic) [Compound 161, rac-4-(2,3-dichloro-6-hydroxyphenyl)-1-(2,3-dihydropyrazolo[5,1-b]oxazol-7-yl)pyrrolidine-2-thione] | –
26 | 0 to 5 | Oc1ccc(Cl)c(Cl)c1C1CC(=S)N(c2cnn3c2OCCC3)C1 (racemic) [Compound 162, rac-4-(2,3-dichloro-6-hydroxyphenyl)-1-(6,7-dihydro-5H-pyrazolo[5,1-b][1,3]oxazin-3-yl)pyrrolidine-2-thione] | –
27 | 25 to 50 | Oc1ccc(Cl)c(Cl)c1C1CC(=S)N(c2cnn3c2COCC3)C1 (racemic) [Compound 163, rac-4-(2,3-dichloro-6-hydroxyphenyl)-1-(6,7-dihydro-4H-pyrazolo[5,1-c][1,4]oxazin-3-yl)pyrrolidine-2-thione] | –
28 | 50 to 75 | Oc1ccc(Cl)c(Cl)c1C1CC(=S)N(c2cnn(C3COC3)c2)C1 (racemic) [Compound 164, rac-4-(2,3-dichloro-6-hydroxyphenyl)-1-(1-(oxetan-3-yl)-1H-pyrazol-4-yl)pyrrolidine-2-thione] | –
